US20230147129A1, “COMPOUNDS FOR USE IN THE TREATMENT OF SYNUCLEINOPATHIES” (SOM INNOVATION BIOTECH, S.A., priority 2020, published 2023)

How the values were obtained:
α-synuclein [1] = target: T1, α-synuclein (Homo sapiens, UniProt P37840); experiment: Thioflavin-T assay of α-synuclein aggregation kinetics; format: biochemical; conditions: 100 μM compound, FIG. 1A and 1B
Procedure: Lyophilized α-synuclein was dissolved in PBS (phosphate buffer solution) to a final solution of 210 μM and filtered through a Millipore 0.22 μm filter. α-synuclein aggregation was performed in a 96-well plate (non-treated, black plastic), each well containing a Teflon® polyball ⅛″ diameter (Polysciences Europe GmbH, Eppelheim, Germany), 40 μM Thioflavin-T (Th-T), 70 μM α-synuclein, 100 μM of the compounds to be tested and PBS up to a final volume of 150 μL. The plates were fixed into an orbital culture shaker Max-Q 4000 (Thermo Scientific, Waltham, Mass., USA) to keep the incubation at 37° C., 100 rpm. Every, 2 h, the fluorescence intensity was measured using a Victor 3.0 Multilabel Reader (PerkinElmer, Waltham, Mass., USA), by exciting the mixtures with 430-450 nm filter and collecting the emission intensity with 480-510 nm filter. Each measurement was performed in triplicates.
Each plate contained three (3) α-synuclein controls in the absence of any of the tested compounds. The averaged Th-T fluorescence obtained for these wells at the end of the experience was normalized to 1, and the kinetic curves in the different wells re-scaled accordingly. After compiling the fluorescence signals, means and standard error of mean (SEM) were used to fit the aggregation kinetic with equation (1),
wherein k^b and k^a indicate the homogeneous nucleation rate constant and the secondary rate constant, accounting for fibril elongation and secondary nucleation, respectively.
Re-scaled curves were used to compare the controls with the effect of the compounds and to ensure that the controls were reproducible between different experiments.

α-synuclein [2] = target: T1, α-synuclein; experiment: Light scattering of α-synuclein aggregates at end-point (48 h); format: biochemical; conditions: 48 h end-point; for Effect on aggregation measured by light scattering at 300 and 340 nm (in words): FIG. 2A and 2B; for Normalized light scattering value at 300 nm: normalised to control = 1, excitation 300 nm; for Normalized light scattering value at 340 nm: normalised to control = 1, excitation 340 nm
Procedure: Total aggregate formation at 48 h was measured by light scattering adding 80 μL of pre-aggregated α-synuclein into a quartz cuvette. Samples were previously re-suspended by carefully vortexing and pipetting, and then excited at 300 and 340 nm and 90° scattering collected between 280 to 360 nm. These measurements were performed in a Cary Eclipse Fluorescence Spectrophotometer (Agilent, Santa Clara, Calif., USA).

[3] = system: primary culture of dopaminergic neurons injured with a mitochondrial toxin (MPP+); experiment: Neuroprotection in primary culture of dopaminergic neurons injured with MPP+; format: cell-based, rat; conditions: compounds 10 nM to 10 μM, pre-incubated 1 or 4 hours, MPP+ 4 μM for 48 hours, FIG. 16-20
Procedure: The efficacy of 5 compounds was assessed in a primary culture of dopaminergic neurons injured with a mitochondrial toxin (MPP+), which is often used to experimentally mimic the pathology of Parkinson disease (FIG. 16 to 20).
To obtain rat dopaminergic neurons, pregnant female rats (Wistar, Janvier Labs, France) of 15 days of gestation were killed using a deep anesthesia in a CO2 chamber followed by a cervical dislocation. Midbrains obtained from 15-day-old rat embryos were dissected under microscope and placed in ice-cold medium of Leibovitz (L15) containing 2% of Penicillin-Streptomycin (PS) and 1% of bovine serum albumin (BSA). The ventral portion of the mesencephalic flexure, a region of the developing brain rich in dopaminergic neurons, was used for the cell preparations.
The midbrains were dissociated by trypsinization for 20 min at 37° C. (solution at a final concentration of 0.05% trypsin and 0.02% EDTA). The reaction was stopped by adding Dulbecco's modified Eagle's medium (DMEM) containing DNAase I grade II (0.5 mg/mL) and 10% of fetal calf serum (FCS). Cells were then mechanically dissociated by 3 passages through a 10 ml pipette. […] The supernatant was discarded and the cell pellet was re-suspended in a defined culture serum-free medium consisting of Neurobasal (Invitrogen) supplemented with B27 (2%), L-glutamine (2 mM) and 2% of PS solution and 10 ng/ml of Brain-derived neurotrophic factor (BDNF) and 1 ng/mL of Glial-Derived Neurotrophic Factor (GDNF). Viable cells were counted in a Neubauer cytometer using the trypan blue exclusion test.
Half of the medium was changed every 2 days with fresh medium. On 96-wells plates, only 60 wells were used, the first columns and first lines were not used to avoid any edge effect, the empty wells were filled with sterile water.
Test compounds were tested on culture in 96-well plates (n=6 culture wells per condition).
Vehicle: Culture medium (0.1% DMSO).
Pre-incubation: On day 6 of culture, the compounds (from 10 nM to 10 μM) were dissolved in DMSO and then in culture medium, and were pre-incubated with primary dopaminergic neurons for 1 hour or 4 hours before the application of MPP+.
Injury: One or four hours after the application of the test compounds, MPP+ was added to a final concentration of 4 μM, diluted in control medium still in presence of compounds for 48 hours.
48 hours after the intoxication, the cell culture supernatant was removed, and the cells were fixed by a solution of 4% paraformaldehyde in PBS, pH=7.3 for 20 min at room temperature. The cells were washed twice in PBS, and then permeabilized. Non-specific sites were blocked with a solution of PBS containing 0.1% saponin and 1% FCS for 15 min at room temperature.
Immunostaining: TH and α-syn
The cultures were incubated with: • A monoclonal anti-Tyrosine Hydroxylase (TH) antibody produced in mouse at dilution of 1/10000 in PBS containing 1% FCS, 0.1% saponin, for 2 hours at room temperature. • a polyclonal anti-alpha synuclein (α-syn) antibody produced in rabbit at dilution of 1/200 in PBS containing 1% FCS, 0.1% saponin, for 2 hours at room temperature.
For each condition, 20 (for the TH survival and α-syn readouts) pictures representing the whole well area, were automatically taken using ImageXpress® (Molecular Devices) at 10× magnification (20 pictures, for TH and α-syn into TH neurons) using the same acquisition parameters. From images, analyses were directly and automatically performed by Custom Module Editor® (Molecular Devices). The following read-outs were measured: • Analysis of total number of THneurons (TH positive neurons), • total length of neurite network of TH positive neurons (in μm), • α-syn aggregation (overlapping between TH and α-syn staining),
Results are expressed in percentage of control. All values show the mean+/−SEM (standard error of the mean) from 4-6 wells per condition.

| Compound | Inhibition of Th-T fluorescence / fibril formation (in words) (α-synuclein [1]) | Effect on aggregation measured by light scattering at 300 and 340 nm (in words) (α-synuclein [2]) | Normalized light scattering value at 300 nm (α-synuclein [2]) | Normalized light scattering value at 340 nm (α-synuclein [2]) | Loss of dopaminergic neurons (TH number) after MPP+ (in words) [3] | α-syn aggregation (ratio a-syn area/TH number) triggered by MPP+ (in words) [3] |
| --- | --- | --- | --- | --- | --- | --- |
| Nc1nc(=O)c2ncn([C@H]3C=C[C@@H](CO)C3)c2[nH]1 [(−)-Carbovir, 2-amino-9-[(1R,4S)-4-(hydroxymethyl)cyclopent-2-en-1-yl]-1H-purin-6-one] | more modest inhibition of fibril formation | reduced absorbance at both length waves | 0.72 ± 0.08 | 0.77 ± 0.09 | – | – |
| Cn1ncc(Cl)c1-c1cc(C(=O)N[C@H](CN)Cc2cccc(F)c2)sc1Cl [Afuresertib, N-[(2S)-1-amino-3-(3-fluorophenyl)propan-2-yl]-5-chloro-4-(4-chloro-1-methyl-1H-pyrazol-5-yl)thiophene-2-carboxamide] | potent inhibitors | reduced absorbance at both length waves | 0.44 ± 0.08 | 0.62 ± 0.09 | partially prevented the loss of dopaminergic neurons | decreased α-syn aggregation |
| O=C(c1ccccc1)N1CCN=C1Nc1c(Cl)cccc1Cl [Benclonidine, [2-(2,6-dichloroanilino)-4,5-dihydroimidazol-1-yl]-phenylmethanone] | potent inhibitors | – | 0.95 ± 0.07 | 0.98 ± 0.07 | partially prevented the loss of dopaminergic neurons | decreased α-syn aggregation |
| C[C@@H](NCCCc1cccc(C(F)(F)F)c1)c1cccc2ccccc12 [Cinacalcet, N-[(1R)-1-(1-naphthyl)ethyl]-3-[3-(trifluoromethyl)phenyl]propan-1-amine] | – | significant reduction of the absorbance | 0.44 ± 0.17 | 0.48 ± 0.18 | – | – |
| N=C(N)NCC1COC2(CCCCC2)O1 (centres unmarked) [Guanadrel, 2-(1,4-dioxaspiro[4.5]decan-2-ylmethyl)guanidine] | more modest inhibition of fibril formation | reduced absorbance at both length waves | 0.68 ± 0.06 | 0.68 ± 0.06 | partially prevented the loss of dopaminergic neurons | decreased α-syn aggregation |
| N=C(N)NC(=O)Cc1c(Cl)cccc1Cl [Guanfacine, N-(diaminomethylidene)-2-(2,6-dichlorophenyl)acetamide] | more modest inhibition | significant reduction of the absorbance | 0.65 ± 0.10 | 0.68 ± 0.10 | partially prevented the loss of dopaminergic neurons | decreased α-syn aggregation |
| CC(CCc1ccc2c(c1)OCO2)NCC(O)c1ccc(O)c(C(N)=O)c1 (centres unmarked) [Medroxalol, 5-[2-[[3-(1,3-Benzodioxol-5-yl)-1-methylpropyl]amino]-1-hydroxyethyl]-2-hydroxybenzamide] | more modest inhibition of fibril formation | reduced absorbance at both length waves | 0.72 ± 0.03 | 0.75 ± 0.04 | – | – |
| CCCOc1ccc2[nH]c(NC(=O)OC)nc2c1 [Oxibendazole, Methyl N-(6-propoxy-1H-benzimidazol-2-yl) carbamate] | – | significant reduction of the absorbance | 0.13 ± 0.02 | 0.51 ± 0.10 | – | – |
| N=C(NN=Cc1ccc(Cl)cc1)NN=Cc1ccc(Cl)cc1 [Robenidine, 1,2-bis[(4-chlorophenyl)methylideneamino]guanidine] | – | significant reduction of the absorbance | 0.31 ± 0.03 | 0.31 ± 0.02 | – | – |
| Cc1ccnc(NS(=O)(=O)c2ccc(N)cc2)n1 [Sulfamerazine, 4-amino-N-(4-methylpyrimidin-2-yl)benzenesulfonamide] | potent inhibitors | reduced absorbance at both length waves | 0.55 ± 0.10 | 0.78 ± 0.14 | – | – |
